Read-outs that look alike come from different tables or passages of the source.
Tests used:
[1] = Solubility of curcumin in water and methanol; type: physicochemical
Source text: In a first experiment curcumin powder, purchased from Sigma Aldrich, was used as the organic source material. The curcumin powder was formed into a pellet of target material by compression in a 0.5 inch in diameter mold using three tons of pressure. The curcumin pellet was then ablated according to the present invention using deionized water as the liquid. The flow rate of the liquid in the container was about 80 milliliters per second. The curcumin pellet was ablated using an ultrafast pulsed laser having a wavelength of 1045 nanometers, using a pulse duration of 500 femtoseconds, a pulse energy of 1 microJoules, a power of 1 W and a pulse repetition rate of 1 MHz. The laser focus spot size was about 30 micrometers in diameter and the fluence is calculated at about 0.14 Joules/cm^2. The frequency of the vibrating mirror was 50 Hz with a 4 millimeter trace for 0.4 meters per second. […] The hydrocolloidal contains some large particles as evidenced by the spread of the peak and the background absorbance of the curve. The y-axis is the absorption and the x-axis is the wavelength. […] In addition, 0.1 milliliters of the curcumin nanoparticle hydrocolloidal prepared according to the present invention was mixed with 1.0 milliliters of methanol. […]

[2] = background statement; cited from earlier work

**Q.** Which solubility in methanol ([1]; methanol, powder dissolved at 2.5×10^−5 M) does the source give for `COc1cc(C=CC(=O)CC(=O)C=Cc2ccc(O)c(OC)c2)ccc1O` [curcumin, 1,7-bis(4-hydroxy-3-methoxyphenyl)-1,6-heptadiene-3,5-dione] here?
**A.** dissolvable in methanol

**Q.** What about the solubility in water ([1]; water) of the same molecule?
**A.** does not dissolve in water

**Q.** What about the solubility in water [2] of the same molecule?
**A.** not water soluble

Source: patent US8992815B2, “Production of organic compound nanoparticles with high repetition rate ultrafast pulsed laser ablation in liquids” (IMRA America, Inc., priority 2010, dated 2015)
